From ChEMBL document CHEMBL5335780, “The emerging role of mixed lineage kinase 3 (MLK3) and its potential as a target for neurodegenerative diseases therapies” (Eur J Med Chem, 2023)

Tests used:
[1] = biological target: Mitogen-activated protein kinase kinase kinase 9 (Homo sapiens, UniProt P80192); experiment: Inhibition of MLK1 (unknown origin)
[2] = biological target: Mitogen-activated protein kinase kinase kinase 11 (Homo sapiens, UniProt Q16584); experiment: Inhibition of MLK3 (unknown origin)
Sequence of Mitogen-activated protein kinase kinase kinase 11 (Q16584 whole entry): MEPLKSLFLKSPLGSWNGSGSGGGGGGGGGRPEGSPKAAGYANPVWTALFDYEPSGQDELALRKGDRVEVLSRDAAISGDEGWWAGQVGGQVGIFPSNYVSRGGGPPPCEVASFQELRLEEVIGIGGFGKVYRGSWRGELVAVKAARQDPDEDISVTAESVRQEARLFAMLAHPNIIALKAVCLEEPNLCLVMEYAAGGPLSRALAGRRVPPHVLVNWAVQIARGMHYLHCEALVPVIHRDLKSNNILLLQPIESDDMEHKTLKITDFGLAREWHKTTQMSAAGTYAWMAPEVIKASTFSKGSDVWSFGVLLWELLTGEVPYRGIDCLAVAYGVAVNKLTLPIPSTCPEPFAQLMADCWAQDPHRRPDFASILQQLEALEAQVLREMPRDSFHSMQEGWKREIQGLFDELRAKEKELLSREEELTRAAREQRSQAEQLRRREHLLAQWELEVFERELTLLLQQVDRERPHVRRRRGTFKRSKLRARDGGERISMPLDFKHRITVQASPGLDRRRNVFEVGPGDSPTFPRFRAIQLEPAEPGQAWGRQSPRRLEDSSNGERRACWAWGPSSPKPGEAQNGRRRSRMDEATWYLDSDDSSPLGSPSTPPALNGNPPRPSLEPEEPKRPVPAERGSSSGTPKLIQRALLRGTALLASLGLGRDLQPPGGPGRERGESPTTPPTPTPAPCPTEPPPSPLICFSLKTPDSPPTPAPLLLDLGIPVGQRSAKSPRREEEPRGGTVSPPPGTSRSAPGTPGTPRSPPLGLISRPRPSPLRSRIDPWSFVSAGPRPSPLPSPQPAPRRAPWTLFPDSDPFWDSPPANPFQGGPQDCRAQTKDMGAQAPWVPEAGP

Sequence of Mitogen-activated protein kinase kinase kinase 9 (P80192 whole entry): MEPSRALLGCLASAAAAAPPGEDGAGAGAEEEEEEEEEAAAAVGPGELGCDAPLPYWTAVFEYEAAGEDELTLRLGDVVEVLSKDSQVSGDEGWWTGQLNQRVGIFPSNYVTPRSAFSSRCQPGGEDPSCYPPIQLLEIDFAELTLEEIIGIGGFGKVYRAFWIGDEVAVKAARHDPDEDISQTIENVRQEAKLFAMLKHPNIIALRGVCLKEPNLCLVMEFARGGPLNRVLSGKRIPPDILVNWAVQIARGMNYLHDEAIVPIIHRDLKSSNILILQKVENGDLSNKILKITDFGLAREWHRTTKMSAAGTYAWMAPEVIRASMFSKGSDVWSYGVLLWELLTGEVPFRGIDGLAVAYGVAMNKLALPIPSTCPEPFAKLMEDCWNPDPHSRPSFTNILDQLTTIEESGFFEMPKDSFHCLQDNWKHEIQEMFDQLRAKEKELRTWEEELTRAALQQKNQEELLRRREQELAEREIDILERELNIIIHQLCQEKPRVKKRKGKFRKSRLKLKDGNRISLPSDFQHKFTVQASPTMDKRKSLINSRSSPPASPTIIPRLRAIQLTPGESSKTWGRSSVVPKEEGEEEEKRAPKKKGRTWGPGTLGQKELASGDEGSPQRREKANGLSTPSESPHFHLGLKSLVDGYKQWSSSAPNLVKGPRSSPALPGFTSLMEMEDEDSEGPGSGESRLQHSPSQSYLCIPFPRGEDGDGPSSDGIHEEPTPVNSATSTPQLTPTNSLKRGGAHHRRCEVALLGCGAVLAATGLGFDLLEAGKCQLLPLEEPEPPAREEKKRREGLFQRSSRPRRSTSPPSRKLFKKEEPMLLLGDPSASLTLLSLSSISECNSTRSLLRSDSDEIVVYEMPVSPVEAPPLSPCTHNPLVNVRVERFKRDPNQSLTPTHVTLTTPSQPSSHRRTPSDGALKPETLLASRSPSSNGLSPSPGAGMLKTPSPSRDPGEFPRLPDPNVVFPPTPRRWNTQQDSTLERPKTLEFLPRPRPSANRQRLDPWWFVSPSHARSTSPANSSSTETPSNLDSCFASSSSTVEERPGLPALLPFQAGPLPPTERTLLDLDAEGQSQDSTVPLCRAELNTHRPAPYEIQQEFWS

IC50 [1]: 44.7 nM | IC50 [2]: 23.7 nM
SMILES: OCCN1CCN(Cc2ccc(-c3cnc4[nH]cc(-c5cccc(Cl)c5)c4c3)cc2)CC1
